This note sets out measurements from US7998995B2 (Exelixis Patent Company LLC, priority 2006, dated 2011).

For orientation: EC50 means the concentration giving half of the maximal effect.

The assay relates to T1, LXR.
T1 construct: fused on or other part: GST fused to the LBD in the FRET assay
As to the kind of experiment: Measured EC50 or IC50 for LXR (LXRα and/or LXRβ; assay and subtype not given). The following applies: IC50 or EC50 class, subtype not specified. The procedure: Measured EC50 or IC50 for LXR, and FXR for Compounds of the Invention
LXR and FXR activities for various compounds of the invention are presented in the following table; those compounds with EC50 or IC50 values <10 μM for at least one of LXRα, LXRβ or FXR are considered to be active. In the following Table, IC50 or EC50 data is represented as follows: A<1 μM, B=1-10 μm, and C>10 μM.
As to `CCS(=O)(=O)c1cccc(-c2ccc(-n3cc(C4=NC(C)(C)CO4)nc3-c3c(Cl)cccc3Cl)c(Cl)c2)c1` [Example 935, 2-{1-[3-chloro-3′-(ethylsulfonyl)biphenyl-4-yl]-2-(2,6-dichlorophenyl)-1H-imidazol-4-yl}-4,4-dimethyl-4,5-dihydro-1,3-oxazole], the EC50 was below 1000 nM.

`CS(=O)(=O)c1cccc(-c2ccc(-n3cc(C4=NCCO4)nc3-c3c(Cl)cccc3Cl)c(Cl)c2)c1` [Example 936, 2-{1-[3-chloro-3′-(methylsulfonyl)biphenyl-4-yl]-2-(2,6-dichlorophenyl)-1H-imidazol-4-yl}-4,5-dihydro-1,3-oxazole] yielded an EC50 below 1000 nM.

Compound `CC1CN=C(c2cn(-c3ccc(-c4cccc(S(C)(=O)=O)c4)cc3Cl)c(-c3c(Cl)cccc3Cl)n2)O1` (stereo not drawn) [Example 937, 2-{1-[3-chloro-3′-(methylsulfonyl)biphenyl-4-yl]-2-(2,6-dichlorophenyl)-1H-imidazol-4-yl}-5-methyl-4,5-dihydro-1,3-oxazole] yielded a 50% effective concentration (EC50) below 1000 nM.

As to `CC1COC(c2cn(-c3ccc(-c4cccc(S(C)(=O)=O)c4)cc3Cl)c(-c3c(Cl)cccc3Cl)n2)=N1` (stereo not drawn) [Example 938, 2-{1-[3-chloro-3′-(methylsulfonyl)biphenyl-4-yl]-2-(2,6-dichlorophenyl)-1H-imidazol-4-yl}-4-methyl-4,5-dihydro-1,3-oxazole], the EC50 is below 1000 nM.

`CC1(C)COC(c2cn(-c3ccc(-c4cccc(S(C)(=O)=O)c4)cc3)c(-c3c(Cl)cccc3Cl)n2)=N1` [Example 939, 2-{2-(2,6-dichlorophenyl)-1-[3′-(methylsulfonyl)biphenyl-4-yl]-1H-imidazol-4-yl}-4,4-dimethyl-4,5-dihydro-1,3-oxazole] showed an EC50 below 1000 nM.

The compound `CC1(C)CSC(c2cn(-c3ccc(-c4cccc(S(C)(=O)=O)c4)cc3Cl)c(-c3c(Cl)cccc3Cl)n2)=N1` [Example 940, 2-{1-[3-chloro-3′-(methylsulfonyl)biphenyl-4-yl]-2-(2,6-dichlorophenyl)-1H-imidazol-4-yl}-4,4-dimethyl-4,5-dihydro-1,3-thiazole] came in with an EC50 below 1000 nM.

In the case of `CS(=O)(=O)c1cccc(-c2ccc(-n3cc(C4=NCCN4)nc3-c3c(Cl)cccc3Cl)c(Cl)c2)c1` [Example 941, 1′-[3-chloro-3′-(methylsulfonyl)biphenyl-4-yl]-2′-(2,6-dichlorophenyl)-4,5-dihydro-1H,1′H-2,4′-biimidazole], the EC50 lay in the range of 1000 to 10000 nM.

Regarding `CC1(C)CN=C(c2cn(-c3ccc(-c4cccc(S(C)(=O)=O)c4)cc3Cl)c(-c3c(Cl)cccc3Cl)n2)N1` [Example 942, 1′-[3-chloro-3′-(methylsulfonyl)biphenyl-4-yl]-2′-(2,6-dichlorophenyl)-5,5-dimethyl-4,5-dihydro-1H,1′H-2,4′-biimidazole], the concentration giving a half-maximal response (EC50) was above 10000 nM.

In turn, `CC1(C)CN=C(c2cn(-c3ccc(-c4cccc(S(C)(=O)=O)c4)cc3)c(-c3c(Cl)cccc3Cl)n2)N1` [Example 943, 2′-(2,6-dichlorophenyl)-5,5-dimethyl-1′-[3′-(methysulfonyl)biphenyl-4-yl]-4,5-dihydro-1H,1′H-2,4′-biimidazole] returned an EC50 above 10000 nM.

In turn, `Cc1noc(-c2cn(-c3ccc(-c4cccc(S(C)(=O)=O)c4)cc3Cl)c(-c3c(Cl)cccc3Cl)n2)n1` [Example 944, 5-{1-[3-chloro-3′-(methylsulfonyl)biphenyl-4-yl]-2-(2,6-dichlorophenyl)-1H-imidazol-4-yl}-3-methyl-1,2,4-oxadiazole] gave a concentration for a half-maximal effect (EC50) below 1000 nM.

For `CC(C)(c1ccccc1Cl)c1nc(C2CCCN2)cn1-c1ccc(-c2cccc(S(C)(=O)=O)c2)cc1` (stereo not drawn) [Example 976, 2-[1-(2-Chlorophenyl)-1-methylethyl]-1-[3′-(methylsulfonyl)biphenyl-4-yl]-4-pyrrolidin-2-yl-1H-imidazole], the EC50 lay within 1000 to 10000 nM.

Regarding `COC(=O)N1CCCC1c1cn(-c2ccc(-c3cccc(S(C)(=O)=O)c3)cc2)c(C(C)(C)c2ccccc2Cl)n1` (stereo not drawn) [Example 977, Methyl 2-{2-[1-(2-chlorophenyl)-1-methylethyl]-1-[3′-(methylsulfonyl)biphenyl-4-yl]-1H-imidazol-4-yl}pyrrolidine-1-carboxylate], the EC50 is below 1000 nM.

In turn, `CC(=O)N1CCCC1c1cn(-c2ccc(-c3cccc(S(C)(=O)=O)c3)cc2)c(C(C)(C)c2ccccc2Cl)n1` (stereo not drawn) [Example 978, 4-(1-acetylpyrrolidin-2-yl)-2-[1-(2-chlorophenyl)-1-methylethyl]-1-[3′-(methylsulfonyl)biphenyl-4-yl]-1H-imidazole] had an EC50 below 1000 nM.

In the case of `CN1CCCC1c1cn(-c2ccc(-c3cccc(S(C)(=O)=O)c3)cc2)c(C(C)(C)c2ccccc2Cl)n1` (stereo not drawn) [Example 979, 2-[1-(2-chlorophenyl)-1-methylethyl]-4-(1-methylpyrrolidin-2-yl)-1-[3′-(methylsulfonyl)biphenyl-4-l]-1H-imidazole], the concentration giving a half-maximal response (EC50) was 1000 to 10000 nM.

`CS(=O)(=O)c1cccc(-c2ccc(-n3cc(C4(O)CC4)nc3-c3ccccc3Cl)cc2)c1` [Example 980, 1-(2-(2-chlorophenyl)-1-(3′-(methylsulfonyl)biphenyl-4-yl)-1H-imidazol-4-yl)cyclopropanol] registered a concentration for a half-maximal effect (EC50) below 1000 nM.

`CS(=O)(=O)c1cccc(-c2ccc(-n3cc(C4(O)CCCC4)nc3-c3ccccc3Cl)cc2)c1` [Example 981, 1-(2-(2-chlorophenyl)-1-(3′-(methylsulfonyl)biphenyl-4-yl)-1H-imidazol-4-yl)cyclopentanol] had an EC50 of 1000 to 10000 nM.

Regarding `CC1(C)CC(=O)C=C(c2cn(-c3ccc(-c4cccc(S(C)(=O)=O)c4)cc3Cl)c(-c3ccccc3Cl)n2)O1` [Example 982, 6-[1-(3-Chloro-3′-methanesulfonyl-biphenyl-4-yl)-2-(2-chlorophenyl)-1-H-imidazol-4-yl]-2,2-dimethyl-2,3-dihydro-pyran-4-one], the concentration for a half-maximal effect (EC50) is below 1000 nM.

Compound `CN1CC(c2cn(-c3ccc(-c4cccc(S(C)(=O)=O)c4)cc3Cl)c(-c3ccccc3Cl)n2)CC1=O` (stereo not drawn) [Example 984, 4-[1-(3-Chloro-3′-methanesulfonyl-biphenyl-4-yl)-2-(2-chlorophenyl)-1-H-imidazol-4-yl]-1-methyl-pyrrolidin-2-one] displayed an EC50 below 1000 nM.

Regarding `CS(=O)(=O)c1cccc(-c2ccc(-n3cc(-c4cc(C(F)(F)F)on4)nc3-c3ccccc3Cl)c(Cl)c2)c1` [Example 990, 3-(1-(3-chloro-3′-(methylsulfonyl)biphenyl-4-yl)-2-(2-chlorophenyl)-1H-imidazol-4-yl)-5-(trifluoromethyl)isoxazole], the half-maximal effective concentration (EC50) fell in the range of 1000 to 10000 nM.

With `CS(=O)(=O)c1cccc(-c2ccc(-n3cc(C4CC4)nc3-c3ccccc3C(F)(F)F)cc2)c1` [Example 991, 4-cyclopropyl-1-(3′-(methylsulfonyl)biphenyl-4-yl)-2-(2-(trifluoromethyl)phenyl)-1H-imdazole], the concentration giving a half-maximal response (EC50) was below 1000 nM.

On to `CS(=O)(=O)c1cccc(-c2ccc(-n3cc(-c4ccsc4)nc3-c3cccc(Cl)c3Cl)cc2)c1` [Example 992, 2-(2,3-dichlorophenyl)-1-(3′-(methylsulfonyl)biphenyl-4-yl)-4-(thiophen-3-yl)-1H-imidazole], for which the EC50 is below 1000 nM.

In turn, `Cc1cscc1-c1cn(-c2ccc(-c3cccc(S(C)(=O)=O)c3)cc2)c(-c2ccccc2C(F)(F)F)n1` [Example 993, 1-(3′-(methylsulfonyl)biphenyl-4-yl)-4-(4-methylthiophen-3-yl)-2-(2-(trifluoromethyl)phenyl)-1H-imidazole] displayed a half-maximal effective concentration (EC50) of 1000 to 10000 nM.

Compound `Cn1cc(-c2cn(-c3ccc(-c4cccc(S(C)(=O)=O)c4)cc3)c(-c3ccccc3C(F)(F)F)n2)cn1` [Example 994, 1-methyl-4-(1-(3′-(methylsulfonyl)biphenyl-4-yl)-2-(2-(trifluoromethyl)phenyl)-1H-imidazol-4-yl)-1H-pyrazole] displayed an EC50 below 1000 nM.

`CS(=O)(=O)c1cccc(-c2ccc(-n3cc(-c4ccoc4)nc3-c3ccccc3C(F)(F)F)cc2)c1` [Example 995, 4-(furan-3-yl)-1-(3′-(methylsulfonyl)biphenyl-4-yl)-2-(2-(trifluoromethyl)phenyl)-1H-imidazole]: the 50% effective concentration (EC50) was below 1000 nM.

Regarding `CS(=O)(=O)c1cccc(-c2ccc(-n3cc(-c4ccsc4)nc3-c3ccccc3C(F)(F)F)cc2)c1` [Example 996, 1-(3′-(methylsulfonyl)biphenyl-4-yl)-4-(thiophen-3-yl)-2-(2-(trifluoromethyl)phenyl)-1H-imidazole], the EC50 was below 1000 nM.

In turn, `CS(=O)(=O)c1cccc(-c2ccc(-n3cc(-c4ccsc4)nc3-c3ccccc3Cl)c(Cl)c2)c1` [Example 997, 1-(3-chloro-3′-(methylsulfonyl)biphenyl-4-yl)-2-(2-chlorophenyl)-4-(thiophen-3-yl)-1H-imidazole] returned a half-maximal effective concentration (EC50) below 1000 nM.

For `CS(=O)(=O)c1cccc(-c2ccc(-n3cc(N4CCC4)nc3-c3ccccc3C(F)(F)F)cc2)c1` [Example 998, 4-(azetidin-1-yl)-1-(3′-(methylsulfonyl)biphenyl-4-yl)-2-(2-(trifluoromethyl)phenyl)-1H-imidazole], the 50% effective concentration (EC50) was below 1000 nM.

The compound `CS(=O)(=O)c1cccc(-c2ccc(-n3cc(-n4cccn4)nc3-c3c(Cl)cccc3Cl)cc2)c1` [Example 999, 1-{2-(2,6-dichlorophenyl)-1-[3′-(methylsulfonyl)biphenyl-4-yl]-1H-imidazol-4-yl}-1H-pyrazole] yielded a concentration for a half-maximal effect (EC50) below 1000 nM.

`Cc1nccn1-c1cn(-c2ccc(-c3cccc(S(C)(=O)=O)c3)cc2)c(-c2c(Cl)cccc2Cl)n1` [Example 1001, 2′-(2,6-dichlorophenyl)-2-methyl-1′-[3′-(methylsulfonyl)biphenyl-4-yl]-1′H-1,4′-biimidazole] showed an EC50 below 1000 nM.

With `CS(=O)(=O)c1cccc(-c2ccc(-n3cc(N4CCCC4)nc3-c3c(Cl)cccc3Cl)cc2)c1` [Example 1002, 2-(2,6-dichlorophenyl)-1-[3′-(methylsulfonyl)biphenyl-4-yl]-4-(pyrrolidin-1-yl)-1H-imidazole], the EC50 is below 1000 nM.
